CC1(C)COP(=O)(Oc2cc(OP3(=O)OCC(C)(C)CO3)cc(OP3(=O)OCC(C)(C)CO3)c2)OC1
solubility (mole fraction)
Conditions	in 1,4-dioxane	in THF	in acetone	in acetonitrile	in chloroform	in dichloromethane	in ethanol	in methanol
288.15 K	8.73e-05	0.000132	0.000453	0.000941	0.00551	0.00512	7.83e-05	0.000423
293.15 K	9.57e-05	0.000138	0.000502	0.00109	0.00634	0.00589	9.43e-05	0.000496
298.15 K	0.00011	0.000144	0.000568	0.00136	0.00713	0.00673	0.000111	0.000568
303.15 K	0.000127	0.000149	0.000638	0.00158	0.00802	0.00779	0.00013	0.000648
308.15 K	0.000139	0.000154	0.000718	0.00195	0.00921	0.00891	0.000156	0.000748
313.15 K	0.000153	0.000158	0.000805	0.00238	0.0106	–	0.000192	0.000874
318.15 K	0.000171	0.000162	0.000924	0.00289	0.0121	–	0.000225	0.000975
